Test in all cases: inhibition of tumour cell growth, NCI panel, 48 h
For experiment [1], the system named is 786-0 renal.
Experiment [2] has as its system SK-MEL-2 melanoma.
For experiment [3], the system named is HS 578T breast.
Experiment [4] relates to LOX IMVI melanoma.
Experiment [5] relates to PC-3 prostate.
For experiment [6], the system named is OVCAR-4 ovarian.
Experiment [7] relates to ACHN renal.
Experiment [8] has as its system A498 renal.
Experiment [9] deals with COLO 205 colon.
The test system of experiment [10] is SNB-75 CNS.
The test system of experiment [11] is SK-MEL-28 melanoma.
Experiment [12] relates to SNB-19 CNS.
The subject of experiment [13] is HCC-2998 colon.
Experiment [14] concerns NCI-H226 lung.
For experiment [15], the system named is BT-549 breast.
Experiment [16] deals with HCT-15 colon.
Experiment [17] relates to CAKI-1 renal.
In experiment [18] the test system is KM12 colon.
Experiment [19] relates to MOLT-4 leukemia.
In experiment [20] the test system is RPMI-8226 leukemia.

Structures are written as SMILES.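 Cultured in 96-well plates, cells were exposed to test compound for 48 hours across five concentrations. TGI marks complete inhibition of growth.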

Regarding `OC1C#CCSCC#C/C=C\1` (stereo unspecified), the TGI is 39.5 µM in experiment [1]; above 100 µM in [2]; above 100 µM in [3]; above 100 µM in experiment [4]; above 100 µM in experiment [5]; above 100 µM in experiment [6]. In addition, the TGI in experiment [7] is above 100 µM; in [8], above 100 µM; in experiment [9], 29.3 µM; in experiment [10], above 100 µM; in experiment [11] it was above 100 µM; in experiment [12], above 100 µM. Moreover, the TGI in [13], in experiment [14], in experiment [15] and in experiment [16] was above 100 µM each time.
On to `CC(=O)c1[nH]c(NCc2ccccc2)c(C(=S)Nc2ccccc2)c1N`, for which the TGI in experiment [1] was 32.5 µM; in experiment [2] it was 1.07 µM; in [3] it was 58.9 µM; in experiment [4] it was 32.8 µM; in experiment [5] it was above 100 µM; in experiment [6] it was 79.9 µM. The TGI in experiment [7] is 85.2 µM; in experiment [8], 53.7 µM; in [9] it was above 100 µM; in [10] it was above 100 µM; in experiment [11] it was 52 µM; in experiment [12] it was above 100 µM. Also, the TGI was 40.6 µM in [13]; 98.2 µM in [17]; 40.2 µM in experiment [14]; 36.9 µM in experiment [18]; 64.7 µM in [15]; above 100 µM in experiment [19]. The TGI in experiment [16] turned out to be 39.9 µM.
As to `COc1ccc(S(=O)(=O)c2nnc(S(=O)(=O)Cc3ccccc3)s2)cc1`, the TGI in [1] is 62.1 µM; in experiment [20], above 100 µM; in experiment [2], 45.1 µM; in experiment [3], 43 µM; in experiment [5], 47.7 µM; in [6], above 100 µM. Further, the TGI in experiment [7] is 30.6 µM; in experiment [8], 39.9 µM; in experiment [9], 28.5 µM; in [10], 31.8 µM; in [11], 40.3 µM; in experiment [12], 36.8 µM. Moreover, the TGI in experiment [17] was 39.3 µM; in [18], above 100 µM; in [15] it was 49.8 µM; in experiment [16], 50.5 µM.
As to `CC(C)C(=O)OCC1OC(n2c(Br)nc3c(=O)[nH]c(N)nc32)C(OC(=O)C(C)C)C1OC(=O)C(C)C` (stereo unspecified), the TGI in experiment [1] is 65.3 µM; in experiment [2], above 100 µM; in [3] it was above 100 µM; in experiment [4], 55.5 µM; in [5], 62.9 µM; in [7], above 100 µM. Further, the TGI in [9] is above 100 µM; in experiment [10], above 100 µM; in experiment [12], above 100 µM; in experiment [14] it was above 100 µM; in [15] it was above 100 µM; in [19] it was 48.2 µM. The molecule further came in with a TGI in [16] above 100 µM.
Regarding `COC(=O)/C=C(\C)CC(O)/C=C(\C)CCC=C(C)C` (stereo unspecified), the TGI in experiment [1] was above 100 µM; in [2], 73.7 µM; in experiment [3] it was above 100 µM; in [4], above 100 µM; in experiment [5], above 100 µM; in [6], above 100 µM. Further, the TGI in experiment [7] is above 100 µM; in experiment [8], above 100 µM; in [9], above 100 µM; in experiment [10], 57.1 µM; in [11] it was above 100 µM; in experiment [12] it was above 100 µM. For the same molecule, the TGI in experiment [13] was above 100 µM; in experiment [17] it was above 100 µM; in experiment [14], above 100 µM; in experiment [18], above 100 µM; in experiment [15], above 100 µM; in experiment [19], 55.3 µM. The molecule further gave a TGI in experiment [16] above 100 µM.
For `COC(CNC(=O)C(C)NC(=O)/C=C/c1ccccc1)OC` (stereo unspecified), the TGI in experiment [1], in experiment [20], in [2], in experiment [3], in experiment [5] and in [7] was above 100 µM in each case. Further, the TGI in experiment [9], in [10], in [12], in experiment [17], in experiment [14] and in [18] was above 100 µM throughout. Besides, the TGI in experiment [15], in [19] and in [16] was above 100 µM throughout.
`N#Cc1c(N)n(-c2cccc(C(=O)O)c2)c(=O)c2cc([N+](=O)[O-])ccc12`: the TGI in [1], in experiment [20], in experiment [2], in experiment [3], in experiment [4] and in experiment [5] was above 100 µM each time. In addition, the TGI in [6], in experiment [7], in experiment [8], in experiment [9], in experiment [10] and in experiment [11] was above 100 µM throughout. The TGI in experiment [12], in experiment [13], in experiment [17], in experiment [14], in [18] and in experiment [15] was above 100 µM in each case. Further, the TGI in experiment [16] was above 100 µM.
In the case of `N#Cc1c(-c2ccc(Cl)cc2Cl)nc2[nH][nH]c(=S)n2c1=O`, the TGI in experiment [1], in experiment [20], in experiment [2], in experiment [3], in experiment [4] and in experiment [5] was above 100 µM throughout. Besides, the TGI in experiment [6], in [7], in [8], in experiment [9], in experiment [11] and in experiment [12] was above 100 µM each time. Moreover, the TGI in [13], in experiment [17], in experiment [14], in experiment [18], in experiment [15] and in experiment [19] was above 100 µM in each case. For the same molecule, the TGI in experiment [16] was above 100 µM.

These data come from PubChem BioAssay (NCI).
